One assay has as its target HMGR (Homo sapiens (Human), UniProt P04035). The experiment in a line: HMG-CoA reductase (HMGR) activity assay, recombinant protein. The assay is classed as biochemical. As to conditions: for IC50: mean ± SD of three experiments. The text has this:
HMG-CoA Reductase (HMGR) Activity Assay.

The target in another assay is HDAC6 (Homo sapiens (Human), UniProt Q9UBN7). The experiment in a line: HDAC fluorescent activity assay (HDAC6). The assay is classed as biochemical. As to conditions: mean ± SD of three experiments. As to the method:
(§1) The HDAC activity was performed using the HDAC fluorescent activity assay kit (BIOMOL, Plymouth Meeting, Pa., USA) according to the manufacturer's instructions. Briefly, recombinant proteins of HDAC1 or HDAC6 were incubated with test compounds, and HDAC reaction was initiated by addition of Fluor-de-Lys substrate. Samples were incubated for 10 min at room temperature, followed by adding developer to stop the reaction. Fluorescence was measured by fluorometric reader with excitation at 360 nm and emission at 460 nm. The HDAC activity was expressed as arbitrary fluorescence units (AFU). […] The half maximal inhibitory concentration (IC50) values for the test compounds were calculated from software SigmaPlot.

The target of another assay is HDAC1 (Homo sapiens (Human), UniProt Q13547). The experiment in a line: HDAC fluorescent activity assay (HDAC1). The assay is classed as biochemical. As to the method: as §1
The target in a further assay is HDAC2 (Homo sapiens (Human), UniProt Q92769). The experiment in a line: HDAC fluorescent activity assay (HDAC2). The assay is classed as biochemical.
The test system of assay [1] is acetylation of α-tubulin in A549 cells. The experiment in a line: Western blot analysis of tubulin acetylation in A549 cells. Format: cell-based, human. As to conditions: SAHA at 5 μM. As to the method: (§2) After treated with test compounds (i.e., compounds of example 1), cells were lysed on ice, and cell lysates were collected and subjected to SDS-PAGE. Immunoblotting was performed using specific antibodies to evaluate the expression of proteins.
(§3) The intracellular histone acetylation status is a direct indicator for class I HDAC inhibition, whereas α-tubulin is the substrate of class II HDAC (i.e., HDAC 6).
A general note: A western blot detects proteins with antibodies after separation by electrophoresis.

The test system of assay [2] is acetylation of histone H3 in A549 lung cancer cells. The experiment in a line: Western blot analysis of histone acetylation in A549 cells. Format: cell-based, human. As to conditions: SAHA at 5 μM. The protocol:
as §2, §3

Assay [3] addresses HMGR activity in A549 lung cancer cells (Homo sapiens (Human), UniProt P04035). The experiment in a line: HMGR activity in whole cell lysates of treated A549 lung cancer cells. As to conditions: 1-50 μM, 24 h.
Protocol: A549 cells were cultured in Dulbecco's modified Eagle's medium (DMEM) in a humidified incubator containing 5% CO2/95% air.
The HMGR activity was performed using HMG-CoA reductase assay kit from Sigma-Aldrich with the human recombinant protein or 100 μg total cell lysates from A549 cells. […] HMGR activity under defined assay conditions, containing NADPH and HMG-CoA substrate in a final volume of 0.2 mL of 100 mM potassium phosphatate buffer (120 mM KCI, 1 mM EDTA, 5 mM DTT, pH 7.4), were initiated in the presence or absence (control) of test compounds dissolved in dimethylsulfoxide (DMSO). The rates of NADPH consumption were monitored every 20 seconds, for up to 10 minutes, by spectrophotometer at 37° C. and 340 nm. The HMGR activity was calculated as a percentage of activity compared with the control group at 5 min. The IC50 values were calculated from software SigmaPlot.

SMILES strings stand for the structures. Where two headings read alike, the source gives them in different places.

Sequence of HDAC1 (Q13547 whole entry, species assumed): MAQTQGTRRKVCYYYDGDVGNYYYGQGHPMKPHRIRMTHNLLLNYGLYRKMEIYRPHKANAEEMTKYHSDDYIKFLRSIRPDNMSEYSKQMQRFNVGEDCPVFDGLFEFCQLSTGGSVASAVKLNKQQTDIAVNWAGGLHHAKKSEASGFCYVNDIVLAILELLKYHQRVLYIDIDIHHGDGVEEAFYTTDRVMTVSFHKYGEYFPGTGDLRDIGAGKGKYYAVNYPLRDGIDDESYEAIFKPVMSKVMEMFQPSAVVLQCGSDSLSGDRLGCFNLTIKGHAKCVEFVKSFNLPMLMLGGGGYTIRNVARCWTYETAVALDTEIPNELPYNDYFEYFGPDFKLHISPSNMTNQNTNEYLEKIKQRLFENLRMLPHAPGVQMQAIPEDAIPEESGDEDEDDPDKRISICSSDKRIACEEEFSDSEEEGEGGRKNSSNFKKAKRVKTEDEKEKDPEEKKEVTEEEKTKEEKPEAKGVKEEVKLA
Sequence of HDAC6 (Q9UBN7 whole entry, species assumed): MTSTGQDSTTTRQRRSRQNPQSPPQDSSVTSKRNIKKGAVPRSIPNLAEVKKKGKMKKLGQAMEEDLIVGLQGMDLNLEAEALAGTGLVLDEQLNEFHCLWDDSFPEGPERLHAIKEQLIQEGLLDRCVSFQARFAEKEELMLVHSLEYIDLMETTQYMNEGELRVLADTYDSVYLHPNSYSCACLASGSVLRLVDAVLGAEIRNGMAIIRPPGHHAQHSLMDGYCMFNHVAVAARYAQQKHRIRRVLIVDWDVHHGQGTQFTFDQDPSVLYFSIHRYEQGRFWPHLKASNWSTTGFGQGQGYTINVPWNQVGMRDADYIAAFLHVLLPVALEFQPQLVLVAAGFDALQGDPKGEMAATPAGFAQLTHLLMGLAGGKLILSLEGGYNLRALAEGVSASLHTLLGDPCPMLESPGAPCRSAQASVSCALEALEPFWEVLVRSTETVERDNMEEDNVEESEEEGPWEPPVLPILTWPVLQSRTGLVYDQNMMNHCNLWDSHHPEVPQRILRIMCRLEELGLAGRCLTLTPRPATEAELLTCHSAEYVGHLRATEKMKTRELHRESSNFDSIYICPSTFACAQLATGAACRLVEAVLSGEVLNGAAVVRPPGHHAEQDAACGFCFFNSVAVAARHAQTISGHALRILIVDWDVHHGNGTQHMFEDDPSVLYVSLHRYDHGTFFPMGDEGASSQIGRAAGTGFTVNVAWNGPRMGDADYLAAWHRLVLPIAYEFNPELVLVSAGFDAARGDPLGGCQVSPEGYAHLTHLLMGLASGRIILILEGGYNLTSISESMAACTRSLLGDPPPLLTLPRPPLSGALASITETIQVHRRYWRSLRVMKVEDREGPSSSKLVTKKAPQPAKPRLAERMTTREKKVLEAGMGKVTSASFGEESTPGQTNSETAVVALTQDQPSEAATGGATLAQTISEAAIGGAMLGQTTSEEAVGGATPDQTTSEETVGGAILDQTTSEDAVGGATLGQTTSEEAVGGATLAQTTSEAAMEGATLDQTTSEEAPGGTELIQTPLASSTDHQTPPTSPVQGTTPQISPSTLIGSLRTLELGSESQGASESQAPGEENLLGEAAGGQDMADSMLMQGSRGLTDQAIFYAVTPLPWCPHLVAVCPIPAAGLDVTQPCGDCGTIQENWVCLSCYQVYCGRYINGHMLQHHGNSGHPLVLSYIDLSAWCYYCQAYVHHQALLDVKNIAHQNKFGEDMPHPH
Sequence of HMGR (P04035 426-888 limits assumed): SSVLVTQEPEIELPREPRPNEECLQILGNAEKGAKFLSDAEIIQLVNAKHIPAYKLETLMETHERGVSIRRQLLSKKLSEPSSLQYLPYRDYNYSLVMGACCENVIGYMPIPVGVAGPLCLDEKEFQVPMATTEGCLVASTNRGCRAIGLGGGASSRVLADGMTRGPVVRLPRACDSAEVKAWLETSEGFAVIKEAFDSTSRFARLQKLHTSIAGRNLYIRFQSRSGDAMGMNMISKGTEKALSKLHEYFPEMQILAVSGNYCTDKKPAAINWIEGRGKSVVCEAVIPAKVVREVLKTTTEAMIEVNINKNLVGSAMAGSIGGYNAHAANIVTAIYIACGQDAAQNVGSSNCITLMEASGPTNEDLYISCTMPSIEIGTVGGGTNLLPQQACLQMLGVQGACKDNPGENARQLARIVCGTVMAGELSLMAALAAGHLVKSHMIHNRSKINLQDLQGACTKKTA
Sequence of HDAC2 (Q92769 whole entry, species assumed): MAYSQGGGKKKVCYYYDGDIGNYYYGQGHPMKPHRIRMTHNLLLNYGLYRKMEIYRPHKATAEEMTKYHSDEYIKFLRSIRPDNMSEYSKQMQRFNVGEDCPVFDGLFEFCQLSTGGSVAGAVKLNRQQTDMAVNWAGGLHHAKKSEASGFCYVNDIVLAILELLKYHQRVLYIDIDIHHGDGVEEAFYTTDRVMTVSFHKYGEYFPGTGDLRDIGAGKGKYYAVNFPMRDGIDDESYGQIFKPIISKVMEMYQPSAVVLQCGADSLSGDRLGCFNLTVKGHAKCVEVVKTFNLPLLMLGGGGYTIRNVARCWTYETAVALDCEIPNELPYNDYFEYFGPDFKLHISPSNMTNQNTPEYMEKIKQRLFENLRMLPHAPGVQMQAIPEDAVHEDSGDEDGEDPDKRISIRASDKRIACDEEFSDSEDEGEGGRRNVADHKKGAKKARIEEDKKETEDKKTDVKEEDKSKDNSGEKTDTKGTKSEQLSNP
Sequence of HMGR activity in A549 lung cancer cells (P04035 whole entry): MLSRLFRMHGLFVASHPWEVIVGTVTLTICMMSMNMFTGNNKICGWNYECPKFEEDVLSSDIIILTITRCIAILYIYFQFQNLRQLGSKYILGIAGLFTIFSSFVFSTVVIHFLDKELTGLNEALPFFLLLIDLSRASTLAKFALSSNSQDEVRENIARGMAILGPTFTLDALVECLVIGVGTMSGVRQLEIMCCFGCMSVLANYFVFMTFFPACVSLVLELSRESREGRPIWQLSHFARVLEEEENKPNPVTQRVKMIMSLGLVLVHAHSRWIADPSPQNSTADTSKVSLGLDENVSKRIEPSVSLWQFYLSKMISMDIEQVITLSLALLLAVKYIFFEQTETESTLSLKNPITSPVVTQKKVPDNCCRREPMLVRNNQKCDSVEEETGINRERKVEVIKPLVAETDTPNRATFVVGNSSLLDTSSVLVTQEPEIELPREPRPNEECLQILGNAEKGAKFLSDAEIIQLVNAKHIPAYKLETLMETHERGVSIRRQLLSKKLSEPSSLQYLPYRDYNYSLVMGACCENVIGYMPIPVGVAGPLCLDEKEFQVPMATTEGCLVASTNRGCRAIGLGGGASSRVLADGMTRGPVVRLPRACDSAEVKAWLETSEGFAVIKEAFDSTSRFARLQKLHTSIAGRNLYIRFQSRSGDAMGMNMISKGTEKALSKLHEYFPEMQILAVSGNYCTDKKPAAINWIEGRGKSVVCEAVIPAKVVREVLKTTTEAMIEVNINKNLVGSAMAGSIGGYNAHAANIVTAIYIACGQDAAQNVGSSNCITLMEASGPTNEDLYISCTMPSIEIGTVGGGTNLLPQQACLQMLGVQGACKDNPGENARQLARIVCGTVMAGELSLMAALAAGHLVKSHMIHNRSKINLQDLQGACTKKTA

Broadly, the IC50 is the concentration that inhibits the measured activity by half. Turning to `C#Cc1ccc(NC(=O)O[C@H]2C[C@@H](C)C=C3C=C[C@H](C)[C@H](CC[C@@H]4C[C@@H](O[Si](C)(C)C(C)(C)C)CC(=O)O4)[C@H]32)cc1` [6a, (4R,6R)-6-(2-{(1 S,2S,6R,8S,8aR)-8-[(4-ethynylphenyl)carbamoyloxy]-2,6-dimethyl-1,2,6,7,8,8a-hexahydronaphthyl}ethyl)-4-tert-butyldimethylsilyloxy-3,4,5,6-tetrahydro-2H-pyran-2-one], the IC50 was determined as 36.5 ± 5.3 nM on HMGR, 127 ± 21.5 nM at HDAC6, 159 ± 8.4 nM on HDAC1 and 463 ± 28 nM against HDAC2.

In the case of `C#Cc1ccc(CNC(=O)O[C@H]2C[C@@H](C)C=C3C=C[C@H](C)[C@H](CC[C@@H]4C[C@@H](O[Si](C)(C)C(C)(C)C)CC(=O)O4)[C@H]32)cc1` [6b, (4R,6R)-6-(2-{(1S,2S,6R,8S,8aR)-8-[(4-Ethynylbenzyl)carbamoyloxy]-2,6-dimethyl-1,2,6,7,8,8a-hexahydronaphthyl}ethyl)-4-tert-butyldimethylsilyloxy-3,4,5,6-tetrahydro-2H-pyran-2-one], the IC50 amounted to 53.8 ± 5.2 nM on HMGR, 34 ± 4.3 nM against HDAC6, 125 ± 6.3 nM on HDAC1 (mean ± SD of three experiments) and 882 ± 9.7 nM on HDAC2 (mean ± SD of three experiments).

As for `C[C@H]1C=C2C=C[C@H](C)[C@H](CC[C@@H]3C[C@@H](O[Si](C)(C)C(C)(C)C)CC(=O)O3)[C@H]2[C@@H](OC(=O)Nc2ccc(-c3cn(CCCCCCC(=O)NO)nn3)cc2)C1` [8a, (4R,6R)-6-(2-{(1S,2S,6R,8S,8aR)-8-[(4-{1-[7-(Hydroxyamino)-7-oxoheptyl]-1H-1,2,3-triazol-4-yl}phenyl)carbamoyloxy]-2,6-dimethyl-1,2,6,7,8,8a-hexahydronaphthyl}ethyl)-4-tert-butyldimethylsilyloxy-3,4,5,6-tetrahydro-2H-pyran-2-one], the IC50 was 127 ± 21.5 nM against HDAC6, 159 ± 8.4 nM against HDAC1 and 463 ± 28 nM on HDAC2. Also, in assay [1], the “tubulin acetylation (Western blot)” value is “promoted histone and tubulin acetylation in a dose dependent manner”. Besides, in assay [2], the “histone acetylation (Western blot)” value is “promoted histone and tubulin acetylation in a dose dependent manner”.

On to `C[C@H]1C=C2C=C[C@H](C)[C@H](CC[C@@H]3C[C@@H](O[Si](C)(C)C(C)(C)C)CC(=O)O3)[C@H]2[C@@H](OC(=O)NCc2ccc(-c3cn(CCCCCCC(=O)NO)nn3)cc2)C1` [8b, (4R,6R)-6-(2-{(1S,2S,6R,8S,8aR)-8-[(4-{1-[7-(Hydroxyamino)-7-oxoheptyl]-1H-1,2,3-triazol-4-yl}benzyl)carbamoyloxy]-2,6-dimethyl-1,2,6,7,8,8a-hexahydronaphthyl}ethyl)-4-tert-butyldimethylsilyloxy-3,4,5,6-tetrahydro-2H-pyran-2-one], for which the IC50 against HDAC6 is 34 ± 4.3 nM; against HDAC1, 125 ± 6.3 nM; at HDAC2 it was 882 ± 9.7 nM. In addition, in assay [1], the “tubulin acetylation (Western blot)” value was “promoted histone and tubulin acetylation in a dose dependent manner”. The “histone acetylation (Western blot)” value in assay [2] was “promoted histone and tubulin acetylation in a dose dependent manner”.

For `C[C@H]1C=C2C=C[C@H](C)[C@H](CC[C@@H]3C[C@@H](O[Si](C)(C)C(C)(C)C)CC(=O)O3)[C@H]2[C@@H](OC(=O)NCCCCCCC(=O)NO)C1` [12a, (4R,6R)-6-[2-((1S,2S,6R,8S,8aR)-8-{[7-(Hydroxyamino)-7-oxoheptyl]carbamoyloxy}-2,6-dimethyl-1,2,6,7,8,8a-hexahydronaphthyl)ethyl]-4-tert-butyldimethylsilyloxy-3,4,5,6-tetrahydro-2H-pyran-2-one], the values for the IC50 against HDAC6, at HDAC1 (mean ± SD of three experiments) and against HDAC2 (mean ± SD of three experiments) were 140 ± 5.7 nM, 122 ± 12.7 nM and 658 ± 21.1 nM, respectively.

Turning to `O=C(CCCCCCC(=O)Nc1ccccc1)NO` [SAHA, suberanilohydroxamic acid, reference compound], on HMGR (enzyme assay, any dose), the “inhibition of HMGR activity (in words)” value is given as “no inhibition on HMGR activity at any dose”. Further, in assay [1], the “tubulin acetylation (Western blot)” value is listed as “markedly induced”. The “reduction of HMGR activity in whole cell lysates (in words)” value in assay [3] is reported as “failed to inhibit HMGR at any dose”. For the same molecule, in assay [2], the “histone acetylation (Western blot)” value is listed as “markedly induced”.

Turning to `CC[C@H](C)C(=O)O[C@H]1C[C@@H](C)C=C2C=C[C@H](C)[C@H](CC[C@@H]3C[C@@H](O)CC(=O)O3)[C@H]21` [lovastatin, reference compound], in assay [1], the “tubulin acetylation (Western blot)” value is on record as “no effect”. Moreover, the “histone acetylation (Western blot)” value in assay [2] is “no effect”.

(Values after US9115116B2, “Dual action inhibitors against histone deacetylases and 3-hydroxy-3-methylglutaryl coenzyme a reductase” (Academia Sinica, priority 2013, dated 2015).)
